Source: PubChem BioAssay AID2060627 (Molecular Pharmacology Branch, DTP, NCI, 2025)

Test system: 156681-154-R-J1-PDC complex spheroid viability
Test: Anticancer human tumor 156681-154-R-J1-PDC patient-derived melanoma cell line growth inhibition [CLK]
Conditions: for IC50: curve of first compound; for viability, T/C: stronger effect = lower value
Summary of the method: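 Patient-derived tumor cells grown as complex spheroids with HUVEC endothelial cells and mesenchymal stem cells, treated with drug combinations. Concentrations descend in half-log steps from near clinical Cmax, or from 10 microM if Cmax unknown.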
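Further: spheroids exposed to the agents for seven days.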
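Wherever viability, T/C is given: 100% = DMSO vehicle control viability.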

C=CC(=O)Nc1cc(Nc2nccc(-c3cn(C)c4ccccc34)n2)c(OC)cc1N(C)CCN(C)C + CNC(=O)c1ccc(Nc2nc(OC3CCCC3)c3c(-c4ccc5nc(C)oc5c4)c[nH]c3n2)c(OC)c1
IC50 (second compound 0.0316 µM): > 0.3 µM | IC50 (second compound 0.1 µM): > 0.3 µM | IC50 (second compound 0.316 µM): > 0.3 µM | IC50 (second compound 1 µM): 0.242 µM | IC50 (second compound 3.16 µM): 0.00245 µM | IC50 (second compound 10 µM): < 0.000949 µM | viability, T/C (second compound 0.0316 µM, first compound 0.000949 µM): 82.8% | viability, T/C (second compound 0.0316 µM, first compound 0.003 µM): 97.7% | viability, T/C (second compound 0.0316 µM, first compound 0.00949 µM): 90.6% | viability, T/C (second compound 0.0316 µM, first compound 0.03 µM): 111% | viability, T/C (second compound 0.0316 µM, first compound 0.0949 µM): 109% | viability, T/C (second compound 0.0316 µM, first compound 0.3 µM): 90% | viability, T/C (second compound 0.1 µM, first compound 0.000949 µM): 67.7% | viability, T/C (second compound 0.1 µM, first compound 0.003 µM): 64.1% | viability, T/C (second compound 0.1 µM, first compound 0.00949 µM): 61.8% | viability, T/C (second compound 0.1 µM, first compound 0.03 µM): 68.5% | viability, T/C (second compound 0.1 µM, first compound 0.0949 µM): 64.3% | viability, T/C (second compound 0.1 µM, first compound 0.3 µM): 64.8% | viability, T/C (second compound 0.316 µM, first compound 0.000949 µM): 71.5% | viability, T/C (second compound 0.316 µM, first compound 0.003 µM): 64.8% | viability, T/C (second compound 0.316 µM, first compound 0.00949 µM): 83.1% | viability, T/C (second compound 0.316 µM, first compound 0.03 µM): 62.7% | viability, T/C (second compound 0.316 µM, first compound 0.0949 µM): 63.2% | viability, T/C (second compound 0.316 µM, first compound 0.3 µM): 64% | viability, T/C (second compound 1 µM, first compound 0.000949 µM): 62.1% | viability, T/C (second compound 1 µM, first compound 0.003 µM): 56% | viability, T/C (second compound 1 µM, first compound 0.00949 µM): 53.5% | viability, T/C (second compound 1 µM, first compound 0.03 µM): 48.2% | viability, T/C (second compound 1 µM, first compound 0.0949 µM): 64.8% | viability, T/C (second compound 1 µM, first compound 0.3 µM): 43.6% | viability, T/C (second compound 3.16 µM, first compound 0.000949 µM): 50.1% | viability, T/C (second compound 3.16 µM, first compound 0.003 µM): 57.6% | viability, T/C (second compound 3.16 µM, first compound 0.00949 µM): 35.2% | viability, T/C (second compound 3.16 µM, first compound 0.03 µM): 47.2% | viability, T/C (second compound 3.16 µM, first compound 0.0949 µM): 37.9% | viability, T/C (second compound 3.16 µM, first compound 0.3 µM): 29.1% | viability, T/C (second compound 10 µM, first compound 0.000949 µM): 44.9% | viability, T/C (second compound 10 µM, first compound 0.003 µM): 41.8% | viability, T/C (second compound 10 µM, first compound 0.00949 µM): 31.9% | viability, T/C (second compound 10 µM, first compound 0.03 µM): 43.1% | viability, T/C (second compound 10 µM, first compound 0.0949 µM): 45% | viability, T/C (second compound 10 µM, first compound 0.3 µM): 24.2%
